Test results as given in patent publication US8039670B2, “Analogs of alpha galactosyceramide and uses thereof” (Ludwig Institute for Cancer Research, priority 2005, dated 2011).

Legend:
human DC = assay: DC maturation in co-culture of human DC and iNKT cells (flow cytometry CD83, CD86, CD38); format: cell-based
Description: (§1) Different analogs of α-GalCer as indicated or LPS were added to co-cultures of human DC and iNKT cells. (A) Maturation of the DC was assessed after 40 h, gating on CD11c positive cells. Histograms indicate the CD83 and CD86 profiles of DC from different treatments; the percentages indicate the percentage of CD83hi mature DC and the numbers in parenthesis, the mean fluorescence intensity of the population contained within the labeled gate. DC and iNKT cells were co-cultured in the presence of different analogs of α-GalCer for 24 hours. Supernatants were analyzed using ELISA for the presence of (B) IL-12p40 released by the DC and (C) IFN-γ from the iNKT cells. […] Cells were co-cultured in the presence of the indicated concentration of analog and the percentages of DC with increased CD83/CD80 are shown. […] Viability of α-GalCer or analog-pulsed DC was assessed after 40 h co-culture in the presence of iNKT cells by flow cytometry. Cells were stained with propidium iodide and the percentage of live CD11c gated cells remaining in the culture are shown.
(§2) Human monocyte-derived DC were pulsed with 150 ng of different inositol analogs and co-cultured with iNKT cells for 24 h. […] Numbers indicate the mean fluorescence intensity of the histogram gated on CD11c^+ cells.
Immature human DC were cultured in the presence of a human iNKT cell clone with or without analogs or vehicle at different concentrations.
To compare the functions of high affinity α-GalCer, intermediate affinity threitolceramide with the known, low affinity analog OCH, the three compounds were titrated onto DC and used to present to iNKT cells. Maturation of DC and DC viability were examined after 48 h.

iNKT cell clone = assay: Cytokine release from iNKT cell clone stimulated with analog-pulsed C1R-human CD1d cells; format: cell-based; conditions: 24 h, titration
Description: FIG. 9 Inositol-based α-GalCer derivatives are functional in vitro. Human monocyte-derived DC were pulsed with 150 ng of different inositol analogs and co-cultured with iNKT cells for 24 h. […] Numbers indicate the mean fluorescence intensity of the histogram gated on CD11c^+ cells. 6-Deoxy and 6-Sulfono-myo-inositolceramide induce significant (B) IL-12p40 and (C) IFN-γ production by DC and iNKT cells respectively in the supernatants of co-cultured DC and iNKT cells. […] Release of (D) IFN-g and (E) IL-4 from iNKT cells after 24 h in culture with C1R-human CD1d cells pulsed with α-GalCer, 6-Deoxy- or 6-Sulfono-myo-inositolceramide.
The three inositol compounds were titrated on C1R cells expressing human CD1d and used to stimulate an iNKT cell clone.

[1] = target: T1, human invariant Vα24^+/Vβ11^+ TCR binding to hCD1d-lipid complex (Homo sapiens, UniProt P15813); assay: Surface plasmon resonance (Biacore) of soluble iNKT TCR binding to hCD1d monomers loaded with analogs; conditions: for Kd: equilibrium binding, read-out: Kd of the TCR binding to the monomer; for koff: kinetic measurement, read-out: rate of dissociation (Koff) between the TCR and the monomer
T1 construct: soluble human CD1d molecules; made in house
Description: Affinity and kinetics of iNKT TCR binding to hCD1d complexed with α-GalCer or OCH. Increasing concentrations from 0.4 μM to 194 μM (two-fold dilution) of iNKT TCR were injected for 5 seconds over the indicated hCD1d-GSL complexes. The binding responses of 5 concentrations are shown superimposed. The panels on the right show binding response at equilibrium.
The affinities of a soluble NKT cell TCR for human CD1d molecules refolded with different analogs of α-GalCer were measured. Equilibrium binding and kinetic measurements respectively were made for α-GalCer (A and B), threitolceramide (C and D), 4S-threitolceramide (E and F), 4R-threitolceramide (G and H). The Kd values (μM) were calculated from equilibrium binding. The Kon values shown were calculated from Koff and Kd.
We then assessed whether the length of the acyl and sphingosine chains could affect the affinity of iNKT TCR binding to glycolipid-CD1d complex. We refolded Vα24 and Vβ11 chains of the iNKT TCR as previously described (Gadola, Koch et al, J Exp Med, 2006, 203; 699-710) and used the purified and refolded iNKT TCR in surface plasmon resonance studies against immobilized biotinylated CD1d monomers loaded with either α-GalCer or OCH.
To characterize the affinity of analogs of α-GalCer, biotinylated hCD1d monomers were generated using previously described protocols (Karadimitris, Gadola et al, Proc Natl Acad Sci USA, 2001, 98; 3294-8) bound to the different analogs. Surface plasmon resonance (Biacore) analysis was performed using a soluble disulphide-linked human invariant Vα24^+/Vβ11^+ TCR (Gadola, Koch et al, J Exp Med, 2006, 203; 699-710) to measure the equilibrium dissociation constants (Kd) of binding of the TCR to different monomers (FIG. 3).

[2] = tested on: human monocyte derived DCs; assay: Example A: DC maturation markers in human monocyte derived DC with NKT cells (FACS); format: cell-based; conditions: 100 ng/ml, 36 hours, 10 DC/NKT cell
Description: The methodology of Salio, et al., J. Immunol., 167:1188-1197 (2001), incorporated by reference, was followed. In brief, 2×105 human monocyte derived DCs were pulsed with 100 ng/ml of one of Compounds 2, 3, αGal-Cer, or vehicle solution, as a control. For DC pulsing, each of arabinitol ceramide (Compound 1), threitol ceramide (Compound 3), glycerol ceramide (Compound 2) and αGal-Cer was solubilized in vehicle solution (0.5% Tween 20/PBS), and added to the medium of the DC cultures. […] After 36 hours, supernatant was removed from cultures and analyzed for the presence of known DC maturation markers CD83, CD80, CD86, CD25, and CD38, all of which were analyzed via FACS, using well known methods.

p40 form of IL-12 = assay: Example A: IL-12 p40 ELISA as indication of DC stimulation; format: cell-based, human
[3] = tested on: antigen-specific CD8^+ T cells; assay: OVA-specific CD8+ T cells after co-injection with OVA ([…]-Kb tetramer); format: in vivo, C57BL/6 mice; conditions: 1 μg with 800 μg OVA, 6 days
Description: (§3) (A) C57BL/6 mice were co-injected with 1 μg α-GalCer or analog and 800 μg OVA. 6 days later blood samples taken from the tail vein were stained directly ex vivo with fluorescent […]-K^b tetramers and an anti-CD8 antibody and analyzed by flow cytometry. Data are shown as tetramer positive cells as a percentage of CD8^+ cells. (B) 7 days after injection, the mice were challenged in a prophylactic setting with 1×10^6 E.G7-OVA tumour cells s.c. and the size of the tumour monitored over subsequent days.
Previously we, and others have shown that co-injection of model antigens such as OVA (Silk, Hermans et al, J Clin Invest, 2004, 114; 1800-11, Fujii, Shimizu et al, J Exp Med, 2003, 198; 267-79, Hermans, Silk et al, J Immunol, 2003, 171; 5140-7) and β-galactosidase (Silk, Hermans et al, J Clin Invest, 2004, 114; 1800-11) together with α-GalCer induces enhanced CD8^+, CD4^+ T cell and B cell responses. These were effective for therapy against tumour cells expressing the target antigen. The various analogs were co-injected with OVA into wild type mice and 6 days later the blood examined for the presence of antigen-specific CD8^+ T cells using fluorescent K^b-[…] tetramers.

OVA specific response = assay: Example C: OVA specific CTL response in mice injected with OVA and compound (tetramer); format: in vivo; conditions: 400 μg OVA with 1 μg compound i.v.
Description: Subject animals, five mice per group, received an intravenous injection of 400 μg of ovalbumin (OVA) together with 1 μg of one of the compounds of the invention under examination or an equivalent volume of PBS diluted vehicle solution. A subset of mice were injected with 25 μg of the molecule MPL (Sigma-Aldrich; extracted from Salmonella Minnesota) solubilized in PBS.
Following the injections, blood was obtained from lateral tail veins, and PBLs were isolated, using standard methods. The PBLs were then stained, directly, […], with tetrameric, H-2 Kb/OVA 257-264, H-21 Kb complexes, following Palmowski, et al., J. Immunol., 168:4391-4398 (2002), incorporated by reference. The tetramers were prepared in accordance with Whilan, et al., J. Immunol., 163:4342-4348 (1999), incorporated by reference.

[4] = tested on: OVA specific IgG antibodies; assay: Example D: OVA specific IgG antibodies in serum of immunized mice (ELISA); format: in vivo; conditions: ten days following immunization
Description: OVA protein coated ELISA plates, were prepared, using well known methods. Then, blood samples were taken, ten days following immunization, and serum was prepared.
The samples were taken from mice that had been immunized with OVA only, OVA and Compound 1, arabinitol ceramide, OVA and αGal-Cer, or OVA and Compound 2, glycerol ceramide. Additionally, mice were immunized with each of these schedules with MPL added. Serum IgG titers were measured by adding serial dilutions of mouse serum were detected using horseradish peroxidase (HRP) conjugated α-mouse IgG.

[5] = tested on: IFN-γ from the iNKT cells; assay: IFN-γ ELISA of supernatants of DC/iNKT co-cultures; format: cell-based, human; conditions: analogs presented by DC
Description: as §1, §2

[6] = tested on: IL-12p40 released by the DC; assay: IL-12p40 ELISA of supernatants of DC/iNKT co-cultures; format: cell-based, human; conditions: DC/iNKT co-culture, 24 hours
Description: as §1, §2
Release of IL-12p40 (and bioactive p75) by DC is a marker of activation and is thought to play an important role in regulating the profile of the immune response generated in response to those DC (Trinchieri et al, Nat Rev Immunol, 2003, 3; 133-46).

[7] = tested on: DCs obtained from the spleen; assay: Example E: phenotyping of spleen DCs after tail vein injection (CD86); format: in vivo, mice; conditions: 1 μg tail vein, 24 h
Description: In brief, in each experiment, 1 μg of one of a selection of compounds of the invention was injected into the tail vein of subject mice. 24 h later spleen tissue was removed from the animals and gently teased through gauze into complete medium, supplemented with 5 mM of EDTA. Cells were enriched for CD11c by anti-CD11, magnetic beads using published techniques. Once enriched, they were assayed for maturation markers using antibody staining and flow cytometry. Non-specific staining was addressed by using an antibody specific for the Fc-RIII/II receptor.

IL-4 and IFN-γ = assay: Serum cytokines after i.v. injection into mice (ELISA); format: in vivo, C57BL/6 mice
Description: C57BL/6 or iNKT^−/− mice were injected i.v. with 1 μg of vehicle, α-GalCer, analog or 25 μg MPL. Twenty hours after injection splenocytes were stained with antibodies against CD11c, B220 and CD86 and analyzed by flow cytometry. (A) Maturation was assessed by the upregulation of CD86 at the cell surface, gating on DC (CD11c^+). Mean fluorescence intensity for each histogram is indicated. These are representative profiles of two independent experiments. 2, 6 and 18-24 h after injection as described, the mice were bled and the serum tested with ELISA for the presence of (B) IL-4 and (C) IFN-γ released in response to the analog.
Stimulation of iNKT cells by α-GalCer in the context of CD1d rapidly induces release of significant levels of a number of cytokines including IFN-γ and IL-4 (Burdin, Brossay et al, J Immunol, 1998, 161; 3271-81), IL-3 and GM-CSF (Leite-de-Moraes, Lisbonne et al, Eur J Immunol, 2002, 32; 1897-904) with other downstream cell-types including DC (Kitamura, Iwakabe et al, J Exp Med, 1999, 189; 1121-8) and NK cells (Carnaud, Lee et al, J Immunol, 1999, 163; 4647-50) being activated.

E.G7-OVA tumour cells = assay: Prophylactic challenge with E.G7-OVA tumour cells after co-injection with OVA; format: in vivo, C57BL/6 mice; conditions: injected with OVA, challenge 7 days later with 1×10^6 E.G7-OVA s.c.
Description: as §3

Compound: Inositol Ceramide [Compound 10]
- DC maturation and cytokine production from iNKT cells (first test) (human DC; data not shown): induced detectable DC maturation and cytokine production from iNKT cells
- IFN-γ release from iNKT cells (iNKT cell clone): little or no IFN-γ and IL-4
- IL-4 release from iNKT cells (iNKT cell clone): little or no IFN-γ and IL-4

Compound: CCCCCCCCCCCCCCCCCCCCCCCCCC(=O)N[C@@H](COC[C@H](O)[C@@H](O)[C@@H](O)c1ccccc1)[C@H](O)[C@H](O)CCCCCCCCCCCCCC [Compound 14, 4-(S)-Phenyl Threitol Ceramide]
- Kd [1]: 3.84 µM
- koff [1]: 0.65 s⁻¹

Compound: D-myo-Inositol Ceramide Salt [Compound 13]
- IFN-γ release from iNKT cells (iNKT cell clone): little or no IFN-γ release
- IL-4 release from iNKT cells (iNKT cell clone): detectable IL-4 was produced when higher concentrations of the compound were used

Compound: CCCCCCCCCCCCCCCCCCCCCCCCCC(=O)N[C@@H](COCC(O)[C@@H](O)[C@@H](O)CO)[C@H](O)C(O)CCCCCCCCCCCCCC (stereo partly drawn) [Compound 1, Arabinitol Ceramide]
- induction of DC maturation markers (CD83, CD80, CD86, CD25, CD38) [2]: DC maturation markers are induced
- IL-12 potency, fold less potent than Compound 3 (p40 form of IL-12): approximately 1000 fold
- antigen-specific CD8+ T cell response [3]: induced a significant CD8^+ T cell response after 6 days, although less potently than α-GalCer
- OVA specific response (OVA specific response): enhancement of the OVA specific response
- OVA specific antibody response, adjuvant effect compared with MPL [4]: more effective as adjuvants than MPL
- DC maturation (upregulation of CD83, CD86 and CD38) (human DC; human DC with iNKT cell clone, 24 hours): only weakly functional
- IFN-γ released by the iNKT cells [5]: no detectable IFNγ
- IL-12p40 released [6]: little IL-12p40 was detected
- induction of CD86 on spleen DC in vivo [7]: induced CD86 in vivo similarly
- skewing of cytokine response to Th2 (IL-4 and IFN-γ; compared with OCH): Neither compound showed a skewed Th2 cytokine response
- potency of cytokine induction compared with α-GalCer (IL-4 and IFN-γ; equivalent doses): less potent than α-GalCer at equivalent doses
- cytokine release in serum (IL-4, IFN-γ, IL-12p40/70) (IL-4 and IFN-γ; wild type mice, 1 μg i.v., 2, 6 and 18-24 h): detected in the serum with a similar time-course to that seen with α-GalCer
- tumour growth (E.G7-OVA tumour cells): little or no tumour growth

Compound: CCCCCCCCCCCCCCCCCCCCCCCCCC(=O)N[C@@H](COC[C@H](O)[C@@H](O)[C@H](O)c1ccccc1)[C@H](O)[C@H](O)CCCCCCCCCCCCCC [Compound 15, 4-(R)-Phenyl Threitol Ceramide]
- Kd [1]: 4.25 µM
- koff [1]: 0.506 s⁻¹

Compound: D-myo-Inositol Ceramide [Compound 12]
- IFN-γ release from iNKT cells (iNKT cell clone): significant levels of both cytokines
- IL-4 release from iNKT cells (iNKT cell clone): significant levels of both cytokines
